Target: T1, PR-A (Homo sapiens, UniProt P06401)
T1 sequence (P06401 165-933): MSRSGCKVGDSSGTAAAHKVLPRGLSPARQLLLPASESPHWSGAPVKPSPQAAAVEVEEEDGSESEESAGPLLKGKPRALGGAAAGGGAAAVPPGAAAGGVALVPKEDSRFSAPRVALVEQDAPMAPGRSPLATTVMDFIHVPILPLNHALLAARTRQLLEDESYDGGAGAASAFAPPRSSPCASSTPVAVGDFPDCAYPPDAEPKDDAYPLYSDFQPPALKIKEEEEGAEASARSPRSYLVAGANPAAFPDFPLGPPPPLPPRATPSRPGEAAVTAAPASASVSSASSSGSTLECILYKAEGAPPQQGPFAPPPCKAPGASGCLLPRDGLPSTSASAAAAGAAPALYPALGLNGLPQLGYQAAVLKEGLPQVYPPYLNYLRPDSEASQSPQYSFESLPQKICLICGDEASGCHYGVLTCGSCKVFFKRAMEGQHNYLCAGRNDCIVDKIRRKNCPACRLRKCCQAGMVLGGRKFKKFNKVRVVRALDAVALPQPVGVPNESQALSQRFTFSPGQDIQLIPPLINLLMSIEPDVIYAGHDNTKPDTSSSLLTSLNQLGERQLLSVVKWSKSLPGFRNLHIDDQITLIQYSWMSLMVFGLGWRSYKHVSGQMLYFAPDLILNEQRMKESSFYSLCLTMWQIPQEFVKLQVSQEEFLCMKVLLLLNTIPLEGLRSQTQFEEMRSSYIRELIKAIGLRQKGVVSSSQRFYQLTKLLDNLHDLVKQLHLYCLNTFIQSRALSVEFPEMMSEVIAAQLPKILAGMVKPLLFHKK
Test: PR-A regulation of TAT promoter
Type: cell-based
Parameters: TAT2950-LUC in HeLa, PRE2 tk-LUC in CV-1/HepG2
Conditions: data not shown
Procedure: FIGS. 4A-4B are a series of graphs showing CV-1 ([…]) or HepG2 (FIG. 4B) cells that were transiently transfected with either […] of phPR-B or phPR-A alone, or phPR-B in the presence of increasing concentrations of phPR-A, together with 5 µg/ml of the PRE2 tk-LUC reporter and 5 µg/ml of pCH110 as an internal control. HeLa cells (FIG. 4C) were transfected with either phPR-B or phPR-A together with 5 µg/ml of the pTAT2950 reporter and 5 µg/ml of pCH110 as an internal control. […] The relative luciferase activity is calculated by dividing the normalized luciferase value at a given point by that obtained in the absence of transfected receptor or ligand. The data shown represent the mean +/- average deviation from the mean of triplicate estimations;
The 2.9 Kb fragment resulting from the digestion of the pTAT-CAT plasmid, and the 6.7 Kb fragment, containing the luciferase gene and the backbone resulting from MMTV-LUC digestion products, were ligated to create the plasmid TAT2950-LUC.
Cells were seeded in 12-well, 96-well or 10 cm tissue culture plates. […] 20 μg of DNA/ml of transfection buffer were used in each transfection reaction. […]

Q: For `CC(=O)[C@H]1CC[C@H]2[C@@H]3CCC4=CC(=O)CC[C@]4(C)[C@H]3CC[C@]12C` [progesterone], which TAT promoter response (CV-1, PR-A) is on record?
A: unresponsive to either receptor subtype

Q: What about the “TAT promoter response to progesterone” value (HepG2, phPR-A) of the same compound?
A: responded to progesterone
